Test results reported in patent US20100311714A1, “1H-IMIDAZO[4,5-c]QUINOLINONE COMPOUNDS” (priority 2009, published 2010).
Read-outs that look alike come from different tables or passages of the source.

Target: T1, PI3K beta (Homo sapiens, UniProt P42338)
T1 construct: for the full-length p110-b subunit are generated and fused by overlapping PCR; His tag (C); made in house; host or cells: baculovirus BV949; Tn5 (Trichoplusia ni) or TiniPro insect cells
Experiment: PI3K beta kinase assay (Kinase-Glo luminescence)
Assay type: biochemical
Outline: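 Kinase-Glo luminescence read out ATP left after a 60-min room-temperature reaction, started with ATP (1 μM final) on 25 nM His-tagged p85 iSH2–p110β (BV949) plus 10 μg/mL PI substrate in pH 7.5 Tris buffer. Percent inhibition at eight concentrations was fitted to a four-parameter logistic model for IC50.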

T1 sequence (P42338 with tags, fused parts or gaps limits assumed): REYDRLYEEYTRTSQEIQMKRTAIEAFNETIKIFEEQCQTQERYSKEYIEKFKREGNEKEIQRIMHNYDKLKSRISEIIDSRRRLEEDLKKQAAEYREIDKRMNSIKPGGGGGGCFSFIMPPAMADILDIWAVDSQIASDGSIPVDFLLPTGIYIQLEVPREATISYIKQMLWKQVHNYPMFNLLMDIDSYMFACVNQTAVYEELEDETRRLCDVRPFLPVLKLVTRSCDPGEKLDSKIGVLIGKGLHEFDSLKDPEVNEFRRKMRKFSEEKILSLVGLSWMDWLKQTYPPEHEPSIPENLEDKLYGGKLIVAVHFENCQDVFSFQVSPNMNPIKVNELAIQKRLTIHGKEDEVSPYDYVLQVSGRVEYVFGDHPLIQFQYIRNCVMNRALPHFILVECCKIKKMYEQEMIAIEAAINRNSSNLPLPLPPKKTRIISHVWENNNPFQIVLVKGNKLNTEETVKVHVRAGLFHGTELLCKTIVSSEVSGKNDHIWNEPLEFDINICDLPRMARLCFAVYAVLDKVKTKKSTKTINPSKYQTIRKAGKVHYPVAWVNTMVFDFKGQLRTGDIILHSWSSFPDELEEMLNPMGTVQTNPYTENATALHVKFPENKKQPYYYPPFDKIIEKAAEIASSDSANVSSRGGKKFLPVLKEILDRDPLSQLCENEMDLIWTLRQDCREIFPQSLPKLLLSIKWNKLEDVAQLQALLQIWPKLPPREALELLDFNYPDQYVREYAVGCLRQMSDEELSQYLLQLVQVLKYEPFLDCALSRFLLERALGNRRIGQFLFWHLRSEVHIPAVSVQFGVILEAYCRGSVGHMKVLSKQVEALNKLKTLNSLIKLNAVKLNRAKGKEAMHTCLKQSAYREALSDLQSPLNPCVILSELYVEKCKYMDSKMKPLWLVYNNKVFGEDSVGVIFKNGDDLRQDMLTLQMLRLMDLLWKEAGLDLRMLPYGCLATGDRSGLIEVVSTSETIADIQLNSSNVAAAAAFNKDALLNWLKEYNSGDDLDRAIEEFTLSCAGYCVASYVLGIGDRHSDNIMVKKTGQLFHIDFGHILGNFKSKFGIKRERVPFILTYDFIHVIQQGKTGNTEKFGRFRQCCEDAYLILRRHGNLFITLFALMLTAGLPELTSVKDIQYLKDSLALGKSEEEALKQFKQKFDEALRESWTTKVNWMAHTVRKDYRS

| Structure (SMILES) | IC50 (read-out: PI3Kbeta/IC50) [nM] | IC50 (read-out: EPK_PI3Kbeta/IC50) [nM] |
| --- | --- | --- |
| Cc1ncccc1-n1c(=O)n(C)c2cnc3ccc(-c4cnc5[nH]ccc5c4)cc3c21 [Example 2.8, 3-Methyl-1-(2-methyl-pyridin-3-yl)-8-(1H-pyrrolo[2,3-b]pyridin-5-yl)-1,3-dihydro-imidazo[4,5-c]quinolin-2-one] | 173 |  |
| COc1cc(-c2ccc3ncc4c(c3c2)n(-c2ccc(N)nc2C)c(=O)n4C)cnc1CO [Example 30.1, 1-(6-Amino-2-methyl-pyridin-3-yl)-8-(6-hydroxymethyl-5-methoxy-pyridin-3-yl)-3-methyl-1,3-dihydro-imidazo[4,5-c]quinolin-2-one] |  | 426 |
| COc1cc(-c2ccc3ncc4c(c3c2)n(-c2ccc(N3CC(F)(F)C3)nc2C)c(=O)n4C)cnc1CO [Example 24.4, 1-[6-(3,3-Difluoro-azetidin-1-yl)-2-methyl-pyridin-3-yl]-8-(6-hydroxymethyl-5-methoxy-pyridin-3-yl)-3-methyl-1,3-dihydro-imidazo[4,5-c]quinolin-2-one] |  | 2270 |
| CNc1ncc(-c2ccc3ncc4c(c3c2)n(-c2ccc(N3CC[C@@H](O)C3)nc2C)c(=O)n4C)cn1 [Example 34.1, 1-[6-((R)-3-Hydroxy-pyrrolidin-1-yl)-2-methyl-pyridin-3-yl]-3-methyl-8-(2-methylamino-pyrimidin-5-yl)-1,3-dihydro-imidazo[4,5-c]quinolin-2-one] |  | 1100 |
| CNc1ncc(-c2ccc3ncc4c(c3c2)n(-c2ccc(N3CC[C@H](O)C3)nc2C)c(=O)n4C)cc1Cl [Example 32.4, 8-(5-Chloro-6-methylamino-pyridin-3-yl)-1-[6-((S)-3-hydroxy-pyrrolidin-1-yl)-2-methyl-pyridin-3-yl]-3-methyl-1,3-dihydro-imidazo[4,5-c]quinolin-2-one] |  | 106 |
| CCNc1cc(-c2ccc3ncc4c(c3c2)n(-c2ccc(N3CCCC3)nc2C)c(=O)n4C)cnc1CO [Example 25.5, 8-(5-Ethylamino-6-hydroxymethyl-pyridin-3-yl)-3-methyl-1-(2-methyl-6-pyrrolidin-1-yl-pyridin-3-yl)-1,3-dihydro-imidazo[4,5-c]quinolin-2-one] |  | 12 |
| COc1ccc(-n2c(=O)n(C)c3cnc4ccc(-c5cnc(CO)c(OC)c5)cc4c32)c(OC)n1 [Example 8.14, 1-(2,6-Dimethoxy-pyridin-3-yl)-8-(6-hydroxymethyl-5-methoxy-pyridin-3-yl)-3-methyl-1,3-dihydro-imidazo[4,5-c]quinolin-2-one] |  | 1550 |
| Cc1nc(N2CCC(O)C2)ccc1-n1c(=O)n(C)c2cnc3ccc(-c4cncc(C(C)(C)O)c4)cc3c21 (stereo not shown) [Example 27.5, 8-[5-(1-Hydroxy-1-methyl-ethyl)-pyridin-3-yl]-1-[6-(3-hydroxy-pyrrolidin-1-yl)-2-methyl-pyridin-3-yl]-3-methyl-1,3-dihydro-imidazo[4,5-c]quinolin-2-one] |  | 17 |
| Cn1c(=O)n(-c2cccnc2F)c2c3cc(-c4cnc5[nH]ccc5c4)ccc3ncc21 [Example 6.3, 1-(2-Fluoro-pyridin-3-yl)-3-methyl-8-(1H-pyrrolo[2,3-b]pyridin-5-yl)-1,3-dihydro-imidazo[4,5-c]quinolin-2-one] | 112 |  |
| Cc1nc(N2CCC(O)C2)ccc1-n1c(=O)n(C)c2cnc3ccc(-c4cnc(N)c(C(F)(F)F)c4)cc3c21 (stereo not shown) [Example 27.3, 8-(6-Amino-5-trifluoromethyl-pyridin-3-yl)-1-[6-(3-hydroxy-pyrrolidin-1-yl)-2-methyl-pyridin-3-yl]-3-methyl-1,3-dihydro-imidazo[4,5-c]quinolin-2-one] |  | 36 |
| COc1cc(-c2ccc3ncc4c(c3c2)n(-c2ccc(N3CC[C@H](O)C3)nc2C)c(=O)n4C)cnc1CO [Example 32.7, 8-(6-Hydroxymethyl-5-methoxy-pyridin-3-yl)-1-[6-((S)-3-hydroxy-pyrrolidin-1-yl)-2-methyl-pyridin-3-yl]-3-methyl-1,3-dihydro-imidazo[4,5-c]quinolin-2-one] |  | 198 |
| Cc1nc(F)ccc1-n1c(=O)n(C)c2cnc3ccc(-c4cncc(N5CCC5)c4)cc3c21 [Example 7.6, 8-(5-Azetidin-1-yl-pyridin-3-yl)-1-(6-fluoro-2-methyl-pyridin-3-yl)-3-methyl-1,3-dihydro-imidazo[4,5-c]quinolin-2-one] |  | 965 |
| CCNc1cc(-c2ccc3ncc4c(c3c2)n(-c2ccc(N(C)CCO)nc2C)c(=O)n4C)cnc1CO [Example 26.3, 8-(5-Ethylamino-6-hydroxymethyl-pyridin-3-yl)-1-{6-[(2-hydroxy-ethyl)-methyl-amino]-2-methyl-pyridin-3-yl}-3-methyl-1,3-dihydro-imidazo[4,5-c]quinolin-2-one] |  | 2010 |
| CCNc1cc(-c2ccc3ncc4c(c3c2)n(-c2ccc(N3CC(F)(F)C(F)(F)C3)nc2C)c(=O)n4C)cnc1CO [Example 35.2, 8-(5-Ethylamino-6-hydroxymethyl-pyridin-3-yl)-3-methyl-1-[2-methyl-6-(3,3,4,4-tetrafluoro-pyrrolidin-1-yl)-pyridin-3-yl]-1,3-dihydro-imidazo[4,5-c]quinolin-2-one] |  | 78.5 |
| COc1cc(-c2ccc3ncc4c(c3c2)n(-c2ccc(F)nc2C)c(=O)n4C)cnc1CO [Example 7.10, 1-(6-Fluoro-2-methyl-pyridin-3-yl)-8-(6-hydroxymethyl-5-methoxy-pyridin-3-yl)-3-methyl-1,3-dihydro-imidazo[4,5-c]quinolin-2-one] |  | 20 |
| COCc1ncc(-c2ccc3ncc4c(c3c2)n(-c2ccc(F)nc2C)c(=O)n4C)cc1OC [Example 7.7, 1-(6-Fluoro-2-methyl-pyridin-3-yl)-8-(5-methoxy-6-methoxymethyl-pyridin-3-yl)-3-methyl-1,3-dihydro-imidazo[4,5-c]quinolin-2-one] |  | 359 |
| COc1cc(-c2ccc3ncc4c(c3c2)n(-c2ccc(N3CCC(OC)C3)nc2C)c(=O)n4C)cnc1CO (stereo not shown) [Example 28.3, 8-(6-Hydroxymethyl-5-methoxy-pyridin-3-yl)-1-[6-(3-methoxy-pyrrolidin-1-yl)-2-methyl-pyridin-3-yl]-3-methyl-1,3-dihydro-imidazo[4,5-c]quinolin-2-one] |  | 175 |
| CNc1ncc(-c2ccc3ncc4c(c3c2)n(-c2ccc(N3CCC(OC)C3)nc2C)c(=O)n4C)cn1 (stereo not shown) [Example 28.2, 1-[6-(3-Methoxy-pyrrolidin-1-yl)-2-methyl-pyridin-3-yl]-3-methyl-8-(2-methylamino-pyrimidin-5-yl)-1,3-dihydro-imidazo[4,5-c]quinolin-2-one] |  | 299 |
| COc1ccc(-n2c(=O)n(C)c3cnc4ccc(-c5cncc(N6CCC6)c5)cc4c32)c(OC)n1 [Example 8.11, 8-(5-Azetidin-1-yl-pyridin-3-yl)-1-(2,6-dimethoxy-pyridin-3-yl)-3-methyl-1,3-dihydro-imidazo[4,5-c]quinolin-2-one] |  | 730 |
| Cc1nc(N2CC(O)C2)ccc1-n1c(=O)n(C)c2cnc3ccc(-c4cncc(C(C)(C)O)c4)cc3c21 [Example 29.1, 1-[6-(3-Hydroxy-azetidin-1-yl)-2-methyl-pyridin-3-yl]-8-[5-(1-hydroxy-1-methyl-ethyl)-pyridin-3-yl]-3-methyl-1,3-dihydro-imidazo[4,5-c]quinolin-2-one] |  | 60 |
| CCOc1ccc(-c2ccc3ncc4c(c3c2)n(-c2ccc(N3CCC(O)C3)nc2C)c(=O)n4C)cn1 (stereo not shown) [Example 27.4, 8-(6-Ethoxy-pyridin-3-yl)-1-[6-(3-hydroxy-pyrrolidin-1-yl)-2-methyl-pyridin-3-yl]-3-methyl-1,3-dihydro-imidazo[4,5-c]quinolin-2-one] |  | 904 |
| CNC(=O)c1ccc(-c2ccc3ncc4c(c3c2)n(-c2cccnc2C)c(=O)n4C)cc1 [Example 2.4, N-Methyl-4-[3-methyl-1-(2-methyl-pyridin-3-yl)-2-oxo-2,3-dihydro-1H-imidazo[4,5-c]quinolin-8-yl]-benzamide] | 682 |  |
| COc1ccc(-n2c(=O)n(C)c3cnc4ccc(-c5cnc(C(OC)OC)c(OC)c5)cc4c32)c(OC)n1 [Example 8.13, 8-(6-Dimethoxymethyl-5-methoxy-pyridin-3-yl)-1-(2,6-dimethoxy-pyridin-3-yl)-3-methyl-1,3-dihydro-imidazo[4,5-c]quinolin-2-one] |  | 265 |
| COc1cc(-c2ccc3ncc4c(c3c2)n(-c2ccc(N3CCCC3)nc2C)c(=O)n4C)cnc1CO [Example 25.4, 8-(6-Hydroxymethyl-5-methoxy-pyridin-3-yl)-3-methyl-1-(2-methyl-6-pyrrolidin-1-yl-pyridin-3-yl)-1,3-dihydro-imidazo[4,5-c]quinolin-2-one] |  | 269 |
| COCc1ncc(-c2ccc3ncc4c(c3c2)n(-c2cccnc2C)c(=O)n4C)cc1OC [Example 2.30, 8-(5-Methoxy-6-methoxymethyl-pyridin-3-yl)-3-methyl-1-(2-methyl-pyridin-3-yl)-1,3-dihydro-imidazo[4,5-c]quinolin-2-one] |  | 395 |
